Here are results for 35 compounds from PMC3265452 (PLoS Neglected Tropical Diseases, 2012).

Structures can show the parent of a compound that is named as a salt.

Chain of AaDOP2 (H6D5H2 1-476): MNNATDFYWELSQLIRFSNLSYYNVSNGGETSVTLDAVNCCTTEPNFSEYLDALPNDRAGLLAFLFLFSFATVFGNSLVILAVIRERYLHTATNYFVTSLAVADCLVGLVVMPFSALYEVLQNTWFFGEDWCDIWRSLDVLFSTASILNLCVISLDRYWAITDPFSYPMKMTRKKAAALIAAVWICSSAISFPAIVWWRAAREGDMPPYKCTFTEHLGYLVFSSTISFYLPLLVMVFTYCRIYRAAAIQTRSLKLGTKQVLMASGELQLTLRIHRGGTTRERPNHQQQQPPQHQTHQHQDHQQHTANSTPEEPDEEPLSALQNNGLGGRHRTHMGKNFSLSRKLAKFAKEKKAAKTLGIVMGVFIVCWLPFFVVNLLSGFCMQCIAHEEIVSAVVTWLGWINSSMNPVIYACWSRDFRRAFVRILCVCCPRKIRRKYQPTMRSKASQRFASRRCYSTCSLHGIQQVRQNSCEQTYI

The first assay addresses AaDOP2 (Aedes aegypti, UniProt H6D5H2). Nature of the assay: AaDOP2 antagonist screen of the LOPAC1280 library (HEK-CRELuc-Aadop2 cells, luminescence). The class given is cell-based.
Details: not given
With `O=C(O)Cc1ccccc1Nc1c(Cl)cccc1Cl` [Compound 405, Diclofenac sodium], the “Compound effect (percent receptor signaling in presence of test compound, relative lux units relative to the SCH23390 control)” value came out at 94.

As to `c1ccc(-c2ccccn2)nc1` [Compound 408, 2,2'-Bipyridyl], the “Compound effect (percent receptor signaling in presence of test compound, relative lux units relative to the SCH23390 control)” value is given as 94.

In the case of `CC(C)N(CCC(C(N)=O)(c1ccccc1)c1ccccn1)C(C)C` (centres unmarked) [Compound 409, Disopyramide], the “Compound effect (percent receptor signaling in presence of test compound, relative lux units relative to the SCH23390 control)” value is reported as 95.

Take `O=c1c(-c2ccc(O)cc2)coc2cc(O)ccc12` [Compound 410, Daidzein]: the “Compound effect (percent receptor signaling in presence of test compound, relative lux units relative to the SCH23390 control)” value stood at 47.

Consider `O=c1oc(Cl)c(Cl)c2ccccc12` [Compound 413, 3,4-Dichloroisocoumarin], for which the “Compound effect (percent receptor signaling in presence of test compound, relative lux units relative to the SCH23390 control)” value is 96.

In the case of `Clc1ccc(N2C[C@H]3CC[C@@H](C2)N3)nn1` [Compound 414, DBO-83], the “Compound effect (percent receptor signaling in presence of test compound, relative lux units relative to the SCH23390 control)” value is 100.

Turning to `CN(N=O)c1cc(O)ccc1O` [Compound 417, Dephostatin], the “Compound effect (percent receptor signaling in presence of test compound, relative lux units relative to the SCH23390 control)” value stood at 111.

On to `Nc1nccc2c1ncn2[C@@H]1O[C@H](CO)[C@@H](O)[C@H]1O` [Compound 419, 3-deazaadenosine], for which the “Compound effect (percent receptor signaling in presence of test compound, relative lux units relative to the SCH23390 control)” value was 59.

Take `C#C[C@]1(O)CC[C@H]2[C@@H]3CCC4=Cc5oncc5C[C@]4(C)[C@H]3CC[C@@]21C` [Compound 421, Danazol]: the “Compound effect (percent receptor signaling in presence of test compound, relative lux units relative to the SCH23390 control)” value was 83.

Regarding `CCCCCCN(CCCCCC)C(=O)Cc1c(-c2ccc(F)cc2)[nH]c2ccccc12` [Compound 422, N,N-Dihexyl-2-(4-fluorophenyl)indole-3-acetamide], the “Compound effect (percent receptor signaling in presence of test compound, relative lux units relative to the SCH23390 control)” value came out at 93.

As to `Oc1c2ccccc2c2c3c(cccc13)N=N2` [Compound 424, SP600125], the “Compound effect (percent receptor signaling in presence of test compound, relative lux units relative to the SCH23390 control)” value was determined as 101.

Regarding `CC1=NS(=O)(=O)c2cc(Cl)ccc2N1` [Compound 425, Diazoxide], the “Compound effect (percent receptor signaling in presence of test compound, relative lux units relative to the SCH23390 control)” value is listed as 115.

As for `O=C(O)Cc1ccc(O)c(O)c1` [Compound 426, 3,4-Dihydroxyphenylacetic acid], the “Compound effect (percent receptor signaling in presence of test compound, relative lux units relative to the SCH23390 control)” value is listed as 120.

As to `O=C1CN(/N=C/c2ccc(-c3ccc([N+](=O)[O-])cc3)o2)C(O)=N1` [Compound 427, Dantrolene sodium], the “Compound effect (percent receptor signaling in presence of test compound, relative lux units relative to the SCH23390 control)” value was 100.

`CCn1c(=O)[nH]c2cc(Cl)c(Cl)cc21` [Compound 428, DCEBIO]: the “Compound effect (percent receptor signaling in presence of test compound, relative lux units relative to the SCH23390 control)” value was 67.

On to `OC[C@H]1NC[C@H](O)[C@@H](O)[C@@H]1O` [Compound 429, 1-Deoxynojirimycin hydrochloride], for which the “Compound effect (percent receptor signaling in presence of test compound, relative lux units relative to the SCH23390 control)” value turned out to be 116.

Turning to `N[C@@H](Cc1ccc(O)c(O)c1)C(=O)O` [Compound 430, L-3,4-Dihydroxyphenylalanine], the “Compound effect (percent receptor signaling in presence of test compound, relative lux units relative to the SCH23390 control)” value was found to be 91.

Regarding `COc1cc2nc(N3CCN(C(=O)C4COc5ccccc5O4)CC3)nc(N)c2cc1OC` (centres unmarked) [Compound 432, Doxazosin mesylate], the “Compound effect (percent receptor signaling in presence of test compound, relative lux units relative to the SCH23390 control)” value was determined as 86.

Regarding `C[C@H]1c2cccc(O)c2C(=O)C2=C(O)[C@]3(O)C(=O)C(C(N)=O)=C(O)[C@@H](N(C)C)[C@@H]3[C@@H](O)[C@@H]21` [Compound 433, Doxycycline hydrochloride], the “Compound effect (percent receptor signaling in presence of test compound, relative lux units relative to the SCH23390 control)” value was 103.

For the compound `Br.NC1CCc2cc(O)c(O)cc2C1` (centres unmarked) [Compound 434, 6,7-ADTN hydrobromide], the “Compound effect (percent receptor signaling in presence of test compound, relative lux units relative to the SCH23390 control)” value is 118.

For the compound `CCCN(CCC)CCc1ccc(O)c(O)c1` [Compound 439, Dipropyldopamine hydrobromide], the “Compound effect (percent receptor signaling in presence of test compound, relative lux units relative to the SCH23390 control)” value was 106.

Take `Br.C=CCN1CCc2cccc3c2[C@H]1Cc1ccc(O)c(O)c1-3` [Compound 441, R(-)-N-Allylnorapomorphine hydrobromide]: the “Compound effect (percent receptor signaling in presence of test compound, relative lux units relative to the SCH23390 control)” value is given as 87.

On to `CCn1cc(C(=O)O)c(=O)c2ccc(Cc3ccccc3)nc21` [Compound 442, Amfonelic acid], for which the “Compound effect (percent receptor signaling in presence of test compound, relative lux units relative to the SCH23390 control)” value was 96.

Take `O=C1NC(c2cccc([N+](=O)[O-])c2)=CCN1c1ccccc1O` [Compound 443, Icilin]: the “Compound effect (percent receptor signaling in presence of test compound, relative lux units relative to the SCH23390 control)” value is recorded as 87.

In the case of `CCCn1c(=O)c2c(ncn2C)n(CCC)c1=O` [Compound 450, 1,3-Dipropyl-7-methylxanthine], the “Compound effect (percent receptor signaling in presence of test compound, relative lux units relative to the SCH23390 control)” value came to 123.

`CC(C)c1cccc(C(C)C)c1O` [Compound 452, Propofol]: the “Compound effect (percent receptor signaling in presence of test compound, relative lux units relative to the SCH23390 control)” value worked out at 94.

In the case of `CN1CC[C@@]23CCCC[C@@H]2[C@@H]1Cc1ccc(O)cc13.O=C(O)C(O)C(O)C(=O)O` [Compound 453, Dextrorphan D-tartrate], the “Compound effect (percent receptor signaling in presence of test compound, relative lux units relative to the SCH23390 control)” value came out at 107.

The same assay, now with this note: 10 µM compound, 300 nM dopamine, 2 hr; hit = compound effect <20.
Take `O=C(O)CN(CCN(CC(=O)O)CC(=O)O)CCN(CC(=O)O)CC(=O)O` [Compound 404, Diethylenetriaminepentaacetic acid]: the “Compound effect (percent receptor signaling in presence of test compound, relative lux units relative to the SCH23390 control)” value turned out to be 118%.

Regarding `COc1c2c(nc3ccccc13)OC(C(C)(O)CO)C2` (centres unmarked) [Compound 411, Dubinidine], the “Compound effect (percent receptor signaling in presence of test compound, relative lux units relative to the SCH23390 control)” value was determined as 100%.

As for `CCCCCCCCCCC/C=C\C(C)(C)/C=C\CCCC(=O)O` [Compound 415, 7,7-Dimethyl-(5Z,8Z)-eicosadienoic acid], the “Compound effect (percent receptor signaling in presence of test compound, relative lux units relative to the SCH23390 control)” value is listed as 82%.

`N/C(=N\C(=O)c1nc(Cl)c(N)nc1N)NCc1ccc(Cl)c(Cl)c1` [Compound 418, 3',4'-Dichlorobenzamil]: the “Compound effect (percent receptor signaling in presence of test compound, relative lux units relative to the SCH23390 control)” value is recorded as 73%.

As for `C/C=C1\C(=O)C[C@H]2[C@@H]3CCC4=CC(=O)CC[C@]4(C)[C@H]3CC[C@]12C` [Compound 420, (Z)-Gugglesterone], the “Compound effect (percent receptor signaling in presence of test compound, relative lux units relative to the SCH23390 control)” value came to 91%.

For `Br.CN1CCc2cc(O)cc3c2[C@H]1Cc1ccc(O)c(O)c1-3` [Compound 437, R(-)-2,10,11-Trihydroxyaporphine hybrobromide], the “Compound effect (percent receptor signaling in presence of test compound, relative lux units relative to the SCH23390 control)” value amounted to 71%.

For `Cl.Cl.Fc1ccc(C(OCCN2CCN(CCCc3ccccc3)CC2)c2ccc(F)cc2)cc1` [Compound 445, GBR-12909 dihydrochloride], the “Compound effect (percent receptor signaling in presence of test compound, relative lux units relative to the SCH23390 control)” value was determined as 59%.

In the case of `C[N+]1(C)CCC(OC(=O)C(c2ccccc2)c2ccccc2)CC1.[I-]` [Compound 449, 4-DAMP methiodide], the “Compound effect (percent receptor signaling in presence of test compound, relative lux units relative to the SCH23390 control)” value was 97%.
